Structures can show the parent of a compound that is named as a salt. ± gives the uncertainty stated by the source.
What was measured:
[1] = test system: Klebsiella pneumoniae ATCC 13882; test: onset of ureolytic pH increase; higher = more delayed ureolysis (inhibition)
Method: (§1)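 Klebsiella pneumoniae ATCC 13882 (start OD600 0.05) grown in M9U medium with 40 mM urea and phenol red plus inhibitor, in triplicate in 96-well plates. A557 and OD630 were read every 15 min for 24 h. Ureolysis was followed as the pH-related A557-A630: onset time, Gompertz-fit rate and final value. Growth was followed as OD630.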

[2] = test system: Klebsiella pneumoniae ATCC 13882; test: final pH-related absorbance (A557-A630) after 24 h (absorbance units); higher = more ureolysis; extreme values may be limits of the assay
Method: as §1

[3] = test system: Klebsiella pneumoniae ATCC 13882; test: rate of pH (A557-A630) increase, Gompertz fit (10^-4 s-1); higher = faster ureolysis; extreme values may be limits of the assay
Method: as §1

[4] = test system: Klebsiella pneumoniae ATCC 13882; test: final OD630 (growth) after 24 h; higher = more bacterial growth; extreme values may be limits of the assay
Method: as §1

| Compound | onset of ureolytic pH increase ([1]; 0.1 mM) [min] | onset of ureolytic pH increase ([1]; 1 mM) [min] | onset of ureolytic pH increase ([1]; 10 mM) [min] | final pH-related absorbance ([2]; 0.1 mM) | final pH-related absorbance ([2]; 1 mM) | final pH-related absorbance ([2]; 10 mM) | rate of pH ([3]; 0.1 mM) | rate of pH ([3]; 1 mM) | rate of pH ([3]; 10 mM) | final OD630 ([4]; 0.1 mM) | final OD630 ([4]; 1 mM) | final OD630 ([4]; 10 mM) | other results |
| --- | --- | --- | --- | --- | --- | --- | --- | --- | --- | --- | --- | --- | --- |
| c1c[nH]cn1 [Imidazole] | 562.8 ± 3.5 | 565 ± 7.1 | 619.4 ± 3.2 | 0.163 ± 0.0003 | 0.164 ± 0.0067 | 0.169 ± 0.0015 | 1.457 ± 0.0067 | 1.48 ± 0.046 | 1.43 ± 0.029 | 0.423 ± 0.0002 | 0.42 ± 0.0034 | 0.439 ± 0.0039 | – |
| O=C(O)CNCC(=O)O [Iminodiacetic acid] | – | – | – | – | – | – | – | – | – | – | – | – | onset of ureolytic pH increase ([1]; 0.008 mM): 565.5 ± 3.2 min; onset of ureolytic pH increase ([1]; 0.08 mM): 562.6 ± 1.5 min; onset of ureolytic pH increase ([1]; 0.802 mM): 663 ± 19 min; final pH-related absorbance ([2]; 0.008 mM): 0.184 ± 0.004; final pH-related absorbance ([2]; 0.08 mM): 0.211 ± 0.017; final pH-related absorbance ([2]; 0.802 mM): 0.209 ± 0.007; rate of pH ([3]; 0.008 mM): 2.086 ± 0.011; rate of pH ([3]; 0.08 mM): 2.13 ± 0.052; rate of pH ([3]; 0.802 mM): 1.82 ± 0.045; final OD630 ([4]; 0.008 mM): 0.44 ± 0.003; final OD630 ([4]; 0.08 mM): 0.429 ± 0.003; final OD630 ([4]; 0.802 mM): 0.373 ± 0.011 |
| N=C(N)NCCC[C@H](N)C(=O)O [L-arginine] | – | – | – | – | – | – | – | – | – | – | – | – | onset of ureolytic pH increase ([1]; 0.094 mM): 636.03 ± 0.24 min; onset of ureolytic pH increase ([1]; 0.943 mM): 558.6 ± 4.4 min; onset of ureolytic pH increase ([1]; 9.43 mM): 592.5 ± 2.5 min; final pH-related absorbance ([2]; 0.094 mM): 0.23 ± 0.0075; final pH-related absorbance ([2]; 0.943 mM): 0.238 ± 0.0024; final pH-related absorbance ([2]; 9.43 mM): 0.307 ± 0.0066; rate of pH ([3]; 0.094 mM): 1.72 ± 0.018; rate of pH ([3]; 0.943 mM): 1.69 ± 0.018; rate of pH ([3]; 9.43 mM): 1.66 ± 0.021; final OD630 ([4]; 0.094 mM): 0.472 ± 0.003; final OD630 ([4]; 0.943 mM): 0.52 ± 0.0037; final OD630 ([4]; 9.43 mM): 0.519 ± 0.0064 |
| CCOC(=O)[C@@H](N)CS [L-cysteine ethyl ester hydrochloride] | 441.6 ± 4 | > 900 | > 900 | 0.394 ± 0.031 | 0 | 0 | 2.06 ± 0.11 | 0 | 0 | 0.547 ± 0.018 | 0.299 ± 0.003 | 0.422 ± 0.045 | – |
| COC(=O)[C@@H](N)CS [L-cysteine methyl ester hydrochloride] | 595.25 ± 0.35 | > 900 | – | 0.566 ± 0.001 | 0 | – | 1.55 ± 0.16 | 0 | – | 0.457 ± 0.0075 | 0.261 ± 0.0026 | – | – |
| N[C@@H](CS)C(=O)O [L-cysteine] | 952 ± 1.8 | > 1500 | > 1500 | 0.225 ± 0.0018 | 0 | 0 | 1.656 ± 0.0059 | 0 | 0 | 0.431 ± 0.0025 | 0.334 ± 0.008 | 0.289 ± 0.01 | – |
| NC(=O)CC[C@H](N)C(=O)O [L-glutamine] | – | – | – | – | – | – | – | – | – | – | – | – | onset of ureolytic pH increase ([1]; 0.009 mM): 566.8 ± 3.4 min; onset of ureolytic pH increase ([1]; 0.091 mM): 555.8 ± 1.8 min; onset of ureolytic pH increase ([1]; 9.06 mM): 562.2 ± 3.9 min; final pH-related absorbance ([2]; 0.009 mM): 0.223 ± 0.0054; final pH-related absorbance ([2]; 0.091 mM): 0.219 ± 0.005; final pH-related absorbance ([2]; 9.06 mM): 0.222 ± 0.0029; rate of pH ([3]; 0.009 mM): 1.675 ± 0.015; rate of pH ([3]; 0.091 mM): 1.74 ± 0.052; rate of pH ([3]; 9.06 mM): 1.78 ± 0.018; final OD630 ([4]; 0.009 mM): 0.515 ± 0.01; final OD630 ([4]; 0.091 mM): 0.549 ± 0.014; final OD630 ([4]; 9.06 mM): 0.531 ± 0.0093 |
| N[C@@H](Cc1c[nH]cn1)C(=O)O [L-histidine] | 368.4 ± 3.6 | 411.2 ± 1.3 | 588 ± 5.9 | 0.485 ± 0.022 | 0.506 ± 0.007 | 0.63 ± 0.016 | 3.03 ± 0.049 | 3.09 ± 0.27 | 1.12 ± 0.078 | 0.709 ± 0.008 | 0.706 ± 0.007 | 0.715 ± 0.026 | – |
| O.O.O.O.O.O.O.O=S(=O)([O-])[O-].[Mg+2] [Magnesium sulfate] | 568.1 ± 4.6 | 571 ± 7.1 | 555 ± 12 | 0.151 ± 0.0021 | 0.153 ± 0.0018 | 0.177 ± 0.0039 | 2.16 ± 0.017 | 2.15 ± 0.021 | 2.01 ± 0.046 | 0.553 ± 0.034 | 0.508 ± 0.0073 | 0.521 ± 0.0037 | – |
| CNC(N)=O [Methylurea] | 615.2 ± 1.6 | 615 ± 2.4 | 622.5 ± 0.96 | 0.17 ± 0.0022 | 0.174 ± 0.001 | 0.173 ± 0.001 | 1.54 ± 0.021 | 1.531 ± 0.014 | 1.551 ± 0.0041 | 0.418 ± 0.0043 | 0.427 ± 0.0012 | 0.419 ± 0.0011 | – |
| NC(=O)CN(CC(=O)O)CC(=O)O [N-(2-acetamido)iminodiacetic acid] | – | – | – | – | – | – | – | – | – | – | – | – | onset of ureolytic pH increase ([1]; 0.0035 mM): 570 ± 8.3 min; onset of ureolytic pH increase ([1]; 0.0351 mM): 562.4 ± 3 min; onset of ureolytic pH increase ([1]; 0.351 mM): 581.8 ± 1.1 min; final pH-related absorbance ([2]; 0.0035 mM): 0.217 ± 0.0022; final pH-related absorbance ([2]; 0.0351 mM): 0.218 ± 0.0017; final pH-related absorbance ([2]; 0.351 mM): 0.219 ± 0.0049; rate of pH ([3]; 0.0035 mM): 1.791 ± 0.016; rate of pH ([3]; 0.0351 mM): 1.805 ± 0.018; rate of pH ([3]; 0.351 mM): 1.77 ± 0.053; final OD630 ([4]; 0.0035 mM): 0.548 ± 0.048; final OD630 ([4]; 0.0351 mM): 0.519 ± 0.0043; final OD630 ([4]; 0.351 mM): 0.511 ± 0.0089 |
| O=C(O)CNc1ccc(O)cc1 [N-(4-Hydroxyphenyl)glycine] | – | – | – | – | – | – | – | – | – | – | – | – | onset of ureolytic pH increase ([1]; 0.001 mM): 571.6 ± 1.1 min; onset of ureolytic pH increase ([1]; 0.011 mM): 809 ± 15 min; onset of ureolytic pH increase ([1]; 0.112 mM): 0 min; final pH-related absorbance ([2]; 0.001 mM): 0.183 ± 0.003; final pH-related absorbance ([2]; 0.011 mM): 0.107 ± 0.013; final pH-related absorbance ([2]; 0.112 mM): 0.331 ± 0.042; rate of pH ([3]; 0.001 mM): 2.079 ± 0.0047; rate of pH ([3]; 0.011 mM): 2.81 ± 0.3; rate of pH ([3]; 0.112 mM): 0.632 ± 0.057; final OD630 ([4]; 0.001 mM): 0.438 ± 0.009; final OD630 ([4]; 0.011 mM): 0.357 ± 0.005; final OD630 ([4]; 0.112 mM): 0 |
| O=C1C=CC(=O)N1c1ccccc1 [N-phenylmaleimide] | – | – | – | – | – | – | – | – | – | – | – | – | onset of ureolytic pH increase ([1]; 0.039 mM): 781 ± 9.3 min; onset of ureolytic pH increase ([1]; 0.39 mM): > 1500 min; onset of ureolytic pH increase ([1]; 3.9 mM): > 1500 min; final pH-related absorbance ([2]; 0.039 mM): 0.136 ± 0.0029; final pH-related absorbance ([2]; 0.39 mM): 0; final pH-related absorbance ([2]; 3.9 mM): 0; rate of pH ([3]; 0.039 mM): 1.67 ± 0.056; rate of pH ([3]; 0.39 mM): 0; rate of pH ([3]; 3.9 mM): 0; final OD630 ([4]; 0.039 mM): 0.448 ± 0.07; final OD630 ([4]; 0.39 mM): 0; final OD630 ([4]; 3.9 mM): 0 |
| CNC(=O)NC [N.N'-Dimethylurea] | 592.2 ± 2.8 | 784 ± 29 | 0 | 0.213 ± 0.004 | 0.197 ± 0.095 | 0.456 ± 0.0086 | 1.69 ± 0.054 | 1.77 ± 0.022 | 0.0814 ± 0.0017 | 0.502 ± 0.0051 | 0.411 ± 0.018 | 0 | – |
| O=C(O)C(=O)O [Oxalic acid] | 678 ± 0.9 | 677.1 ± 1.1 | > 900 | 0.334 ± 0.008 | 0.291 ± 0.0011 | 0 | 1.52 ± 0.024 | 1.62 ± 0.013 | 0 | 0.435 ± 0.0093 | 0.441 ± 0.0005 | 0.089 ± 0.0056 | – |

Reference: the supplement of paper PMC7244745
